Experiment [1] concerns the target T1, Signal transducer and activator of transcription 5A (Homo sapiens, UniProt P42229).
T1 sequence (P42229 whole entry): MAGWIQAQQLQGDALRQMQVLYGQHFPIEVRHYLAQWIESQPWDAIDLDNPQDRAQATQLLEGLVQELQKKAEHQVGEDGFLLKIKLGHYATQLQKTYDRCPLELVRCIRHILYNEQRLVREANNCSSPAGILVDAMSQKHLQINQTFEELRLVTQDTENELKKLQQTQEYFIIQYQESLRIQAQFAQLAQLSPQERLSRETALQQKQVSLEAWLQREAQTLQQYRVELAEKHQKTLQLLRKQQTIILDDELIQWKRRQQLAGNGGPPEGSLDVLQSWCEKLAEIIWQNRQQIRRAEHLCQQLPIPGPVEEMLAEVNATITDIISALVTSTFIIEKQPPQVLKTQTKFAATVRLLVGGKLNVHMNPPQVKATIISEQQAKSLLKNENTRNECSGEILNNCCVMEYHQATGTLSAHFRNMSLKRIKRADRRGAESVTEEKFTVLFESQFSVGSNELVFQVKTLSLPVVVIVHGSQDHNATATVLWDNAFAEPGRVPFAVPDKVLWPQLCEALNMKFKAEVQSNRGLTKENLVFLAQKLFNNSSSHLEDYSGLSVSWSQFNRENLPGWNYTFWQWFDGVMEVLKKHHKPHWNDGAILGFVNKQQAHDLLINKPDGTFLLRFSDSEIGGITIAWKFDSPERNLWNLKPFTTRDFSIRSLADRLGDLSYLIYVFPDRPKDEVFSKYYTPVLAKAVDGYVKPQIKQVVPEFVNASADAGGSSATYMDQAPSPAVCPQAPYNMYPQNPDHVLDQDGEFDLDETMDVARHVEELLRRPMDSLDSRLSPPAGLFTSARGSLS
Put plainly: Inhibition of Stat5 phosphorylation in human HEL cells after 1 hr by Western blotting. (Immunoblotting shows a protein as a band on a membrane.)

Experiment [2] concerns the target T1, Signal transducer and activator of transcription 5A. Put plainly: Inhibition of Stat5 phosphorylation in human SET2 cells after 1 hr by Western blotting.
Experiment [3] concerns the target T2, Signal transducer and activator of transcription 3 (Homo sapiens, UniProt P40763). Put plainly: Inhibition of Stat3 phosphorylation in human SET2 cells after 1 hr by Western blotting.
Experiment [4] has as its target T2, Signal transducer and activator of transcription 3. Put plainly: Inhibition of Stat3 phosphorylation in human HEL cells after 1 hr by Western blotting.

Our source for the IC50 values is BindingDB's records for doi:10.1021/jm1011319 (AstraZeneca, 2011).

pIC50: −log10 of the molar value.

T2 sequence (P40763 whole entry): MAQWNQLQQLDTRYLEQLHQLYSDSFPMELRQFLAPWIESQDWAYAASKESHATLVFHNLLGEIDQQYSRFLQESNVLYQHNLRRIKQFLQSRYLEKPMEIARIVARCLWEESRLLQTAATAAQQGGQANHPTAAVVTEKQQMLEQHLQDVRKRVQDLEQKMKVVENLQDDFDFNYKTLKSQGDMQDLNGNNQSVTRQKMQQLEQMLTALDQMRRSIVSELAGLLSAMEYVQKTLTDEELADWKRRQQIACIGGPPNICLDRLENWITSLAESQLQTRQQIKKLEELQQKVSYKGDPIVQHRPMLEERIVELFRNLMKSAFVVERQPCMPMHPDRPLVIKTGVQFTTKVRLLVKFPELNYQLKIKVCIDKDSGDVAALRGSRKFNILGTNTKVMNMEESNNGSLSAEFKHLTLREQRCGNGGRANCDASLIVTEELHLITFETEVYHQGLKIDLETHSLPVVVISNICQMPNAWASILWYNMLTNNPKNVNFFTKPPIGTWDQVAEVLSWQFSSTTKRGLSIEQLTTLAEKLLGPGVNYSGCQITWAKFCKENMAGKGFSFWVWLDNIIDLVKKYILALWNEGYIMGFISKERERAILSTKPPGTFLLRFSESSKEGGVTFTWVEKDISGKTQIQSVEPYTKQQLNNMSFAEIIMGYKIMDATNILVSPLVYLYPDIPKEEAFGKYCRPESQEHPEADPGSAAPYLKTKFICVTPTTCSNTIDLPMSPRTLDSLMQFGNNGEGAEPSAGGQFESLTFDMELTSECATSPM

For orientation: pIC50 means the IC50 on a negative log10 scale, so that one unit is a factor of ten. Higher therefore signals a low IC50. Regarding `Cc1cc(Nc2nc(N[C@@H](C)c3ncc(F)cn3)ncc2Cl)[nH]n1` [5-Chloro-N2-[(1S)-1-(5-fluoropyrimidin-2-yl)ethyl]-N4-(5-methyl-1H-pyrazol-3-yl)pyrimidine-2,4-diamine], the pIC50 in experiment [1] is 7.39; in experiment [2] it was 7.60; in experiment [3], 7.64; in experiment [4], 7.10.
